Among the data in patent US20180002288A1, “USE OF PICOLINAMIDES AS FUNGICIDES” (DOW AGROSCIENCES LLC, priority 2014, published 2018) are pest or weed control values, retold here.

One assay concerns Rhyncosporium secalis. Nature of the assay: Barley Scald fungicidal activity (RHYNSE). It is filed as in vivo. The settings on record: Hordeum vulgare, 24 h, high volume, 1 Day Protectant, read-out: RHYNSE % Control rating. Here is the method:
All fungicides were evaluated using the aforementioned method for their activity vs. all target diseases, unless stated otherwise. Wheat leaf blotch and brown rust activity were also evaluated using track spray applications, in which case the fungicides were formulated as EC formulations, containing 0.1% Trycol 5941 in the spray solutions. Wheat plants (variety Yuma) were grown from seed in a greenhouse in 50% mineral soil/50% soil-less Metro mix until the first leaf was fully emerged, with 7-10 seedlings per pot. These plants were inoculated with an aqueous spore suspension of Zymoseptoria tritici either prior to or after fungicide treatments. After inoculation the plants were kept in 100% relative humidity (one day in a dark dew chamber followed by two to three days in a lighted dew chamber at 20° C.) to permit spores to germinate and infect the leaf. The plants were then transferred to a greenhouse set at 20° C. for disease to develop. When disease symptoms were fully expressed on the 1st leaves of untreated plants, infection levels were assessed on a scale of 0 to 100 percent disease severity. Percent disease control was calculated using the ratio of disease severity on treated plants relative to untreated plants. Barley seedlings (variety Harrington) were propagated in soil-less Metro mix, with each pot having 8 to 12 plants, and used in the test when first leaf was fully emerged. Test plants were inoculated by an aqueous spore suspension of Rhyncosporium secalis 24 hr after fungicide treatments. After inoculation the plants were kept in a dew room at 22° C. with 100% relative humidity for 48 hr. The plants were then transferred to a greenhouse set at 20° C. for disease to develop. Fungicide formulation, application and disease assessment on the sprayed leaves followed the procedures as described in the Example A.

Another assay deals with Phakopsora pachyrhizi. Description: Asian Soybean Rust fungicidal activity (PHAKPA). The settings on record: Phakopsora pachyrhizi, in Glycine max.
The test system of assay [1] is Colletotrichum lagenarium. Nature of the assay: Cucumber Anthracnose fungicidal activity (COLLLA). In kind it is in vivo. The conditions noted are these: Colletotrichum orbiculare, 24 h, high volume, 1 Day Protectant, read-out: COLLLA % Control rating. Here is the method:
All fungicides were evaluated using the aforementioned method for their activity vs. all target diseases, unless stated otherwise. Wheat leaf blotch and brown rust activity were also evaluated using track spray applications, in which case the fungicides were formulated as EC formulations, containing 0.1% Trycol 5941 in the spray solutions. Wheat plants (variety Yuma) were grown from seed in a greenhouse in 50% mineral soil/50% soil-less Metro mix until the first leaf was fully emerged, with 7-10 seedlings per pot. These plants were inoculated with an aqueous spore suspension of Zymoseptoria tritici either prior to or after fungicide treatments. After inoculation the plants were kept in 100% relative humidity (one day in a dark dew chamber followed by two to three days in a lighted dew chamber at 20° C.) to permit spores to germinate and infect the leaf. The plants were then transferred to a greenhouse set at 20° C. for disease to develop. When disease symptoms were fully expressed on the 1st leaves of untreated plants, infection levels were assessed on a scale of 0 to 100 percent disease severity. Percent disease control was calculated using the ratio of disease severity on treated plants relative to untreated plants. Cucumber seedlings (variety Bush Pickle) were propagated in soil-less Metro mix, with each pot having one plant, and used in the test when 12 to 14 days old. Test plants were inoculated with an aqueous spore suspension of Colletotrichum lagenarium 24 hr after fungicide treatments. After inoculation the plants were kept in a dew room at 22° C. with 100% relative humidity for 48 hr to permit spores to germinate and infect the leaf. The plants were then transferred to a growth room set at 22° C. for disease to develop. Fungicide formulation, application and disease assessment on the sprayed leaves followed the procedures as described in the Example A.

Another assay concerns Pyricularia oryzae. Description: whole plant or invertebrate. It is filed as in vivo. The settings on record: 24 h, read-out: PYRIOR % Control rating.
In the next assay the test system is Leptosphaeria nodorum. Description: Wheat Glume Blotch fungicidal activity (LEPTNO). It is filed as in vivo. The settings on record: Parastagonospora nodorum, 24 h, high volume, 1 Day Protectant, read-out: LEPTNO % Control rating. Here is the method: All fungicides were evaluated using the aforementioned method for their activity vs. all target diseases, unless stated otherwise. Wheat leaf blotch and brown rust activity were also evaluated using track spray applications, in which case the fungicides were formulated as EC formulations, containing 0.1% Trycol 5941 in the spray solutions. Wheat plants (variety Yuma) were grown from seed in a greenhouse in 50% mineral soil/50% soil-less Metro mix until the first leaf was fully emerged, with 7-10 seedlings per pot. These plants were inoculated with an aqueous spore suspension of Zymoseptoria tritici either prior to or after fungicide treatments. After inoculation the plants were kept in 100% relative humidity (one day in a dark dew chamber followed by two to three days in a lighted dew chamber at 20° C.) to permit spores to germinate and infect the leaf. The plants were then transferred to a greenhouse set at 20° C. for disease to develop. When disease symptoms were fully expressed on the 1st leaves of untreated plants, infection levels were assessed on a scale of 0 to 100 percent disease severity. Percent disease control was calculated using the ratio of disease severity on treated plants relative to untreated plants. Wheat plants (variety Yuma) were grown from seed in a greenhouse in 50% mineral soil/50% soil-less Metro mix until the first leaf was fully emerged, with 7-10 seedlings per pot. These plants were inoculated with an aqueous spore suspension of Leptosphaeria nodorum 24 hr after fungicide treatments. After inoculation the plants were kept in 100% relative humidity (one day in a dark dew chamber followed by two days in a lighted dew chamber at 20° C.) to permit spores to germinate and infect the leaf. The plants were then transferred to a greenhouse set at 20° C. for disease to develop. Fungicide formulation, application and disease assessment followed the procedures as described in the Example A.

The test system of another assay is Zymoseptoria tritici. Nature of the assay: Leaf Blotch of Wheat fungicidal activity (SEPTTR). It is filed as in vivo. The conditions noted are these: Low Volume Cereal Activity at 121.5 g/Ha.
[2] abbreviates: 24 h, read-out: PHAKPA 1DP % Control rating, soybean, high volume, 25 ppm, 1 Day Protectant.
Setting [3] is: 72 h, read-out: PHAKPA 3DC % Control rating, soybean, high volume, 25 ppm, 3 Day Curative.
Setting [4] is: 24 h, 1 Day Protectant, read-out: SEPTTR 1DP (Wheat Leaf Blotch, 1 Day Protectant).
[5] abbreviates: 72 h, 3 Day Curative, read-out: SEPTTR 3DC (Wheat Leaf Blotch, 3 Day Curative).

SMILES strings stand for the structures. Read-outs that look alike come from different tables or passages of the source.

For the compound `COc1ccnc(C(=O)N[C@@H](C)C(=O)O[C@@H](C)[C@H](Oc2ccccc2)c2ccccc2)c1OCOC(C)=O` [Example 183], the pest or weed control at 100 ppm (with Rhyncosporium secalis; in assay [1]; with Pyricularia oryzae; in the assay with Leptosphaeria nodorum) was over 80% in each case. For the same compound, the pest or weed control at 25 ppm in the assay on Phakopsora pachyrhizi (setting [2]) and in the assay with Phakopsora pachyrhizi (setting [3]) was under 80% in each case. Further, the pest or weed control at 121.5 g/ha with Zymoseptoria tritici (setting [4]) and in the assay on Zymoseptoria tritici (setting [5]) was over 80% throughout.
As for `COc1ccnc(C(=O)N[C@@H](C)C(=O)O[C@@H](C)[C@H](Oc2cccc(F)c2)c2ccccc2)c1OCOC(C)=O` [Example 187], the pest or weed control at 100 ppm (with Rhyncosporium secalis; in assay [1]; in the assay on Pyricularia oryzae; in the assay on Leptosphaeria nodorum) was over 80% throughout. Moreover, the pest or weed control at 25 ppm with Phakopsora pachyrhizi (setting [2]) was over 80%; in the assay with Phakopsora pachyrhizi (setting [3]), under 80%. In addition, the pest or weed control at 121.5 g/ha with Zymoseptoria tritici (setting [4]) and in the assay on Zymoseptoria tritici (setting [5]) was over 80% each time.
On to `COc1ccnc(C(=O)N[C@@H](C)C(=O)O[C@@H](C)[C@H](Oc2cccc(Cl)c2)c2ccccc2)c1OCOC(C)=O` [Example 202], for which the pest or weed control at 100 ppm was under 0% with Rhyncosporium secalis, under 80% in assay [1], under 80% with Pyricularia oryzae and under 80% in the assay with Leptosphaeria nodorum. Besides, the pest or weed control at 25 ppm with Phakopsora pachyrhizi (setting [2]) is over 80%; in the assay with Phakopsora pachyrhizi (setting [3]), under 80%. For the same compound, the pest or weed control at 121.5 g/ha in the assay on Zymoseptoria tritici (setting [4]) and with Zymoseptoria tritici (setting [5]) was over 80% each time.
In the case of `COc1ccnc(C(=O)N[C@@H](C)C(=O)O[C@@H](C)[C@H](Oc2ccccc2Cl)c2ccccc2)c1OC(C)=O` [Example 205], the pest or weed control at 100 ppm in the assay with Rhyncosporium secalis was under 80%; in assay [1], over 80%; in the assay with Pyricularia oryzae it was over 80%; with Leptosphaeria nodorum it was over 80%. For the same compound, the pest or weed control at 25 ppm in the assay on Phakopsora pachyrhizi (setting [2]) and in the assay with Phakopsora pachyrhizi (setting [3]) was under 80% each time. Further, the pest or weed control at 121.5 g/ha in the assay with Zymoseptoria tritici (setting [4]) and in the assay with Zymoseptoria tritici (setting [5]) was over 80% each time.
Consider `COc1ccnc(C(=O)N[C@@H](C)C(=O)O[C@@H](C)[C@H](Oc2cc(F)cc(Cl)c2)c2ccccc2)c1OC(C)=O` [Example 207], for which the pest or weed control at 100 ppm (with Rhyncosporium secalis; in assay [1]; with Pyricularia oryzae; in the assay on Leptosphaeria nodorum) was over 80% each time. Also, the pest or weed control at 25 ppm with Phakopsora pachyrhizi (setting [2]) and in the assay with Phakopsora pachyrhizi (setting [3]) was under 80% each time. Besides, the pest or weed control at 121.5 g/ha in the assay with Zymoseptoria tritici (setting [4]) and in the assay on Zymoseptoria tritici (setting [5]) was over 80% in each case.
For the compound `COc1ccnc(C(=O)N[C@@H](C)C(=O)O[C@@H](C)[C@H](Oc2ccc(F)cc2)c2ccccc2)c1OC(C)=O` [Example 235], the pest or weed control at 100 ppm (with Rhyncosporium secalis; in assay [1]; in the assay on Pyricularia oryzae; in the assay on Leptosphaeria nodorum) was over 80% throughout. The pest or weed control at 25 ppm in the assay with Phakopsora pachyrhizi (setting [2]) and with Phakopsora pachyrhizi (setting [3]) was under 80% throughout. The pest or weed control at 121.5 g/ha in the assay with Zymoseptoria tritici (setting [4]) and in the assay on Zymoseptoria tritici (setting [5]) was over 80% throughout.
On to `COc1ccnc(C(=O)N[C@@H](C)C(=O)O[C@@H](C)C(Oc2ccc(F)cc2)c2ccccc2)c1OC(C)=O` (stereo partly drawn) [Example 236], for which the pest or weed control at 100 ppm in the assay on Rhyncosporium secalis is over 80%; in assay [1], under 80%; in the assay on Pyricularia oryzae, over 80%; in the assay with Leptosphaeria nodorum, over 80%. The pest or weed control at 25 ppm in the assay with Phakopsora pachyrhizi (setting [2]) is over 80%; with Phakopsora pachyrhizi (setting [3]) it was under 0%. Besides, the pest or weed control at 121.5 g/ha in the assay on Zymoseptoria tritici (setting [4]) and in the assay with Zymoseptoria tritici (setting [5]) was over 80% throughout.
As to `COc1ccnc(C(=O)N[C@@H](C)C(=O)O[C@@H](C)[C@H](Oc2ccc(F)cc2)c2ccccc2)c1OCOC(C)=O` [Example 237], the pest or weed control at 100 ppm in the assay with Rhyncosporium secalis is over 80%; in assay [1], under 80%; with Pyricularia oryzae it was over 80%; in the assay on Leptosphaeria nodorum, over 80%. In addition, the pest or weed control at 25 ppm in the assay with Phakopsora pachyrhizi (setting [2]) and in the assay on Phakopsora pachyrhizi (setting [3]) was under 80% each time. Further, the pest or weed control at 121.5 g/ha in the assay with Zymoseptoria tritici (setting [4]) and in the assay with Zymoseptoria tritici (setting [5]) was over 80% throughout.
Turning to `COc1ccnc(C(=O)N[C@@H](C)C(=O)O[C@@H](C)C(Oc2ccc(F)cc2)c2ccc(F)cc2)c1OCOC(C)=O` (stereo partly drawn) [Example 238], the pest or weed control at 100 ppm was over 80% in the assay on Rhyncosporium secalis, under 80% in assay [1], over 80% in the assay on Pyricularia oryzae and over 80% in the assay with Leptosphaeria nodorum. Further, the pest or weed control at 25 ppm in the assay on Phakopsora pachyrhizi (setting [2]) and in the assay with Phakopsora pachyrhizi (setting [3]) was under 80% in each case. In addition, the pest or weed control at 121.5 g/ha in the assay on Zymoseptoria tritici (setting [4]) and with Zymoseptoria tritici (setting [5]) was over 80% each time.
Consider `COc1ccnc(C(=O)N[C@@H](C)C(=O)O[C@@H](C)[C@H](Oc2ccccc2)c2ccc(C)cc2)c1OCOC(C)=O` [Example 252], for which the pest or weed control at 100 ppm (in the assay with Rhyncosporium secalis; in assay [1]; in the assay with Pyricularia oryzae; in the assay with Leptosphaeria nodorum) was over 80% in each case. Further, the pest or weed control at 121.5 g/ha in the assay on Zymoseptoria tritici (setting [4]) and in the assay with Zymoseptoria tritici (setting [5]) was over 80% in each case.
With `COc1ccnc(C(=O)N[C@@H](C)C(=O)O[C@@H](C)[C@H](Oc2ccccc2)c2ccc3ccccc3c2)c1OCOC(C)=O` [Example 263], the pest or weed control at 100 ppm (in the assay with Rhyncosporium secalis; in assay [1]; with Pyricularia oryzae; in the assay with Leptosphaeria nodorum) was over 80% each time. Further, the pest or weed control at 121.5 g/ha in the assay with Zymoseptoria tritici (setting [4]) and in the assay with Zymoseptoria tritici (setting [5]) was over 80% throughout.
